SMILES strings stand for the structures. Like-named read-outs stand apart in the source and are kept apart here.

Assay [1] deals with GM-CSF. As for the experimental part:
The term “GM-CSF” refers to granulocyte macrophage […], a protein necessary for the survival, proliferation and differentiation of hematopoietic progenitor cells, having human gene map locus 5q31.1. A variety of antibodies to GM-CSF are commercially available.
Heterogeneous phase assays directed to GM-CSF were conducted using a LodeStars PMP labeled with AK4 and biotin/streptavidin (AK-PMP-SA) as described in Example 3, an antibody-biotin conjugate and an antibody-HRP conjugate binding to GM-CSF. The antibody-HRP conjugate, (antiGM-CSF-HRP) was purchased from Antigenix.
The antibody-biotin (antiGM-CSF-biotin) conjugate was synthesized by adding a 25-fold molar excess (9.28 μg) of sulfo NHS-biotin (Pierce), dissolved in DMF (1 mg/mL), to 0.1 mg of antibody (Antigenix) in 0.1 mL of 0.1 M sodium borate pH 8.25. After a 60 min incubation at ambient temperature, the reaction was left to incubate overnight at 4° C. The biotinylated antibody was purified over a Sephadex G-25 column (GE Healthcare), equilibrated in PBS, pH 7.4, following the manufacturers instructions.
In order to conduct the heterogeneous assay, 30 μL of an antiGM-CSF-Biotin conjugate solution (0.75 μg/mL, 22.5 ng), 30 μL of calibrator solution having GM-CSF in the range 0-30,000 pg/mL, 30 μL of antiGM-CSF-HRP conjugate (2.25 μg/mL, 67 ng), and 30 μL of AK-streptavidin magnetic particle solution (10 μg of particles) were pipetted into the wells of a white microtiter plate. The plate was incubated for 60 minutes at room temperature. 5 μL of a 2-aminophenol solution (11 mM, 55 nmoles) was added as SSIA. The plate was placed into an injection plate luminometer. 100 μL of trigger solution A was added by the luminometer and the chemiluminescent signal was read for 5 seconds.

The target in assay [2] is T1, biotinylated HRP (Armoracia rusticana, UniProt P00433).
T1 construct: purchased Roche Diagnostics, Indianapolis, Ind., USA
T1 sequence (P00433 31-338 limits assumed): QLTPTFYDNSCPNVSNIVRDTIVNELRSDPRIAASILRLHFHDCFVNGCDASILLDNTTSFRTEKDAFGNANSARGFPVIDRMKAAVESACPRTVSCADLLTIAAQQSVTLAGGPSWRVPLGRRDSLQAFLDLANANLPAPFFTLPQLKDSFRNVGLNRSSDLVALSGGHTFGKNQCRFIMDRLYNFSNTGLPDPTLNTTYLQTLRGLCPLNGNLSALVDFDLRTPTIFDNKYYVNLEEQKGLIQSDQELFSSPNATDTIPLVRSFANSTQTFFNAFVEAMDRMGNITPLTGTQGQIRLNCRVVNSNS
In words: Model system for selection of SSIA (M280 btn-BSA-AK1-streptavidin particles + Btn-HRP:HRP). It is filed as biochemical. The settings on record: for S/S0: Btn-HRP 0 ng/mL vs 0; for S/S0 / S1/S0 / S2/S0 / S3/S0 / S4/S0 / effect in the model system / utility as SSIA: SSIA 100 μM; for B-HRP0 light intensity: Btn-HRP 0 ng/mL; for B-HRP0 light intensity / B-HRP1 light intensity / B-HRP10 light intensity / B-HRP100 light intensity / B-HRP250 light intensity: total HRP 500 ng/mL, SSIA final 100 μM; for S1/S0: Btn-HRP 1 ng/mL vs 0; for B-HRP1 light intensity: Btn-HRP 1 ng/mL; for S2/S0: Btn-HRP 10 ng/mL vs 0; for B-HRP10 light intensity: Btn-HRP 10 ng/mL; for S3/S0: Btn-HRP 100 ng/mL vs 0; for B-HRP100 light intensity: Btn-HRP 100 ng/mL; for S4/S0: Btn-HRP 250 ng/mL vs 0; for B-HRP250 light intensity: Btn-HRP 250 ng/mL; for effect in the model system / utility as SSIA: conclusion in words. The method, then:
The model system uses a microparticle conjugated to BSA (bovine serum albumin) labeled with a […] and acridan ketenedithioacetal chemiluminescent label (AK1) as the chemiluminescent-labeled sbp, and biotinylated HRP as the activator-labeled specific binding pair. In the model system, varying amounts of Btn-HRP is added to the chemiluminescent-labeled specific binding pair at 0, 1, 10, 100 and 250 ng/mL. Additional unlabeled HRP is added to reach a total HRP of concentration of 500 ng/mL in each reaction mixture. The unlabeled HRP in combination with the activator-labeled sbp was provided to the chemiluminescent-labeled sbp microparticles to emulate sample. A compound for assessment as an SSIA was also added. This reaction mixture of the model system is then triggered by addition of trigger solution in a manner of assays of the present disclosure.
To prepare the chemiluminescent-labeled sbp on microparticles, Bovine Serum Albumin (BSA) was biotinylated with 4× molar excess of biotin-LC-sulfoNHS (Pierce Biotechnology Inc., Rockford, Ill., USA). Unbound reactants were removed via desalting or dialysis. The biotin-BSA was then reacted with a 5× molar excess of acridan ketenedithioacetal AK1 in 20 mM sodium phosphate pH 7.2: DMSO 75:25, v/v) followed by desalting in the same buffer. The dual labeled (biotin and AK1) BSA was then coupled with tosyl activated M-280 microparticles (Invitrogen Corporation, Carlsbad, Calif., USA) in a 0.1 M borate buffer pH 9.5 at a concentration of ca. 20 μg labeled BSA per mg of microparticles for 16-24 h at 40° C. After coupling the microparticles were stripped for 1 h at 40° C. with 0.2 M TRIS base, 2% SDS, pH ˜11. The stripping process was repeated one additional time. Microparticles were then suspended in a 0.1% BSA/TRIS buffered saline (BSA/TBS) buffer and streptavidin (SA) was added at approximately 15 μg SA per mg microparticles. Streptavidin was mixed with the microparticles for 45-50 min at room temperature. The microparticles were then washed three times and suspended in the same BSA/TBS.
HRP, (Roche Diagnostics, Indianapolis, Ind., USA) was biotinylated with 4× molar excess of biotin-LC-sulfoNHS (Pierce Biotechnology Inc., Rockford, Ill., USA). Unbound reactants were removed via desalting or dialysis.
Each SSIA compound for assessment was dissolved in Buffer II at a concentration at least 10× of final concentration of the reaction mixture (after the addition of the trigger solution)
Paramagnetic particles (PMP): (M280)-(btn-BSA-AK)-(Streptavidin);
Sample Emulator: B-HRP:HRP; 500 ng/mL total with titration of B-HRP:HRP at Total HRP concentration of 500 ng/mL, with Btn-HRP variations: 0, 1, 10, 100 and 250 ng/mL.
SSIA: According to tables below in BUFFER II targeted to give a final concentration of 100 μM.
Trigger solution A is defined above.
5 μl of 1 mg/ml of dual-labeled (biotin and AK1) BSA M280 particles were mixed with 45 μl of working concentration SSIA in Buffer II. The assay volume brought to […] by adding 15 μl of Buffer II. 15 μl of sample containing Btn-HRP:HRP at different ratios (The amount of biotinylated-HRP varied from 0, 1, 10, 100 and 250 ng/mL) was added. The reaction mixture was incubated for 30 min at 37° C., then 100 μL of trigger solution was added and the light intensity recorded. Total volume of reaction mixture, including trigger solution was […] with a final concentration of 100 μM of SSIA.

Assay [3] relates to PSA. In words: Screening SSIA by homogeneous PSA immunoassay. The assay is classed as biochemical. The settings on record: PSA 129 ng/mL (S5) vs zero; test compound final conc. 122 uM. As for the experimental part: This example presents one method used for testing of candidate compounds for functionality as SSIA in assays of the present disclosure. Testing was conducted in a model screening immunoassay of the protein PSA. Mouse anti-PSA tests were run using a 96-well microtiter plate format. […] The plate was incubated at 37° C. for 10 minutes. A 5 μL aliquot of the test compound (various concentrations) was added to each well. Chemiluminescence was triggered by the addition of 100 μL of a solution of trigger solution A. The chemiluminescent flash was integrated for 5 seconds after the addition of the trigger solution using a Luminoskan Asent® plate luminometer, (Thermo Fischer Scientific, Inc., Waltham, Mass.).
It is desirable that the improvement factor be at least 2 (S5/S0≧ about 20-30) and more desirable that improvement factor be at least 5 (S5/S0≧ about 50), yet more desirable that S5/S0 be ≧100 in the present screen.

Setting [4] is: 2-aminophenol as SSIA, GM-CSF 0 pg/mL.
Where [5] appears, read: 2-aminophenol as SSIA, GM-CSF 1 pg/mL.
[6] abbreviates: 2-aminophenol as SSIA, GM-CSF 3 pg/mL.
Setting [7] is: 2-aminophenol as SSIA, GM-CSF 5 pg/mL.
The mark [8] stands for this setting: 2-aminophenol as SSIA, GM-CSF 10 pg/mL.
Where [9] appears, read: 2-aminophenol as SSIA, GM-CSF 100 pg/mL.
Setting [10] is: 2-aminophenol as SSIA, GM-CSF 1000 pg/mL.
Where [11] appears, read: 2-aminophenol as SSIA, GM-CSF 10000 pg/mL.

Turning to `Nc1ccccc1O` [2-aminophenol], the “Mean RLU” value in assay [1] (2-aminophenol 55 nmoles as SSIA, GM-CSF 30000 pg/mL) stood at 2180 RLU. In assay [1] (setting [4]), the “Mean RLU” value stood at 0.7805 RLU and the S/S0 worked out at 1.000. Also, in assay [1] (setting [5]), the “Mean RLU” value amounted to 0.8045 RLU and the S/S0 stood at 1.030. In assay [1] (setting [6]), the “Mean RLU” value was determined as 0.8865 RLU and the S/S0 turned out to be 1.135. Besides, in assay [1] (setting [7]), the “Mean RLU” value amounted to 0.9205 RLU and the S/S0 was 1.179. In assay [1] (setting [8]), the “Mean RLU” value was found to be 1.284 RLU and the S/S0 came out at 1.645. Also, in assay [1] (setting [9]), the “Mean RLU” value is recorded as 5.2805 RLU and the S/S0 is reported as 6.765. Moreover, in assay [1] (setting [10]), the “Mean RLU” value was 47.89 RLU and the S/S0 was found to be 61.358. In assay [1] (setting [11]), the “Mean RLU” value was determined as 580.6 RLU and the S/S0 stood at 743.882. Moreover, in assay [1] (2-aminophenol as SSIA, GM-CSF 30000 pg/mL), the S/S0 amounted to 2793.081. Moreover, in assay [2], the S/S0 was determined as 1, the B-HRP0 light intensity is on record as 65, the S1/S0 was 5.5 and the B-HRP1 light intensity came to 356. For the same molecule, in assay [2], the S2/S0 was determined as 132.8, the B-HRP10 light intensity is recorded as 8,632, the S3/S0 is listed as 32195.4 and the B-HRP100 light intensity is 2,092,703. In assay [2], the S4/S0 is 61672.1, the B-HRP250 light intensity is 4,008,689 and the “effect in the model system / utility as SSIA” value is “demonstrating utility as SSIA”.

With `N[C@@H](CCC(=O)N[C@@H](CS)C(=O)NCC(=O)O)C(=O)O` [Glutathione], in assay [3], the S5/S0 was 77. In assay [2], the S/S0 was determined as 1, the B-HRP0 light intensity is on record as 26,977, the S1/S0 turned out to be 2.1 and the B-HRP1 light intensity was 55,719. Further, in assay [2], the S2/S0 stood at 92, the B-HRP10 light intensity is reported as 2,480,764, the S3/S0 was found to be 323.7 and the B-HRP100 light intensity is reported as 8,733,068. Also, in assay [2], the S4/S0 stood at 369.4, the B-HRP250 light intensity is recorded as 9,965,235 and the “effect in the model system / utility as SSIA” value is on record as “no effect”.

For the origin of these results see patent US20100273189A1, “NON SEPARATION ASSAYS WITH SELECTIVE SIGNAL INHIBITORS” (BECKMAN COULTER, INC., priority 2009, published 2010).
